The source of these data is patent US20240407413A1, “Concentrates Compromising Stevia Blends and Uses” (The Coca-Cola Company, priority 2018, published 2024).

A short description of series [1]: Appearance of 0.3 wt % syrup concentrates diluted from super concentrates. As to conditions: 0.3 wt % (5.5+1 syrup concentration) in water, mixed at room temperature for 90 hours. It counts as physicochemical. The protocol:
The final syrup concentrations are provided below:
The 2 wt % super concentrates were then diluted to a 5.5+1 syrup concentration (0.3 wt %) with water and mixed at room temperature for 90 hours.

A short description of series [2]: Solubility in mock syrup system (0.3%). It counts as physicochemical.

With `C=C1C[C@@]23CC[C@H]4[C@@](C)(CCC[C@@]4(C)C(=O)O[C@@H]4O[C@H](CO)[C@@H](O)[C@H](O[C@@H]5O[C@H](CO)[C@@H](O)[C@H](O)[C@H]5O)[C@H]4O[C@@H]4O[C@@H](C)[C@H](O)[C@@H](O)[C@H]4O)[C@@H]2CC[C@]1(O[C@@H]1O[C@H](CO)[C@@H](O)[C@H](O[C@@H]2O[C@H](CO)[C@@H](O)[C@H](O)[C@H]2O)[C@H]1O[C@@H]1O[C@H](CO)[C@@H](O)[C@H](O)[C@H]1O)C3` [Reb N], the Observations entry in series [1] was “cloudy”.
With `C=C1C[C@@]23CCC4[C@](C)(C(=O)OC5OC(CO)C(O)C(OC6OC(CO)C(O)C(O)C6O)C5OC5OC(CO)C(O)C(O)C5O)CCC[C@@]4(C)[C@@H]2CCC1(OC1OC(CO)C(O)C(OC2OC(CO)C(O)C(O)C2O)C1OC1OC(CO)C(O)C(O)C1O)C3` (stereo partly drawn) [Reb-M, 13-[(2-O-β-D-glucopyranosyl-3-O-β-D-glucopyranosyl-β-D-glucopyranosyl)oxy] ent kaur-16-en-19-oic acid-[(2-O-β-D-glucopyranosyl-3-O-β-D-glucopyranosyl-β-D-glucopyranosyl) ester]], the “Solubility in Syrup System (0.3%)” value in series [2] (500 ppm in citric buffer) and in series [2] (512 ppm in citric buffer) was “No” each time.
